Measurements taken from the supplement of paper PMC11061612.

Assays:
Test in all cases: combination Emax (second highest fraction inhibited in the dose matrix, 72 h); higher = more inhibition; extreme values may be limits of the assay
[1] = system: HGC-27 (Gastric Carcinoma)
In short: (§1)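 Bliss excess equals the observed combination effect minus the expected value EA + EB − EA·EB, where EA and EB are the effects of each agent alone. Combination Emax is the second-highest inhibition within the matrix. Inhibition was scaled from CellTiter-Glo 2.0 luminescence, with 0 set by vehicle wells and 1 by blank wells, after 72 hours of two-drug dosing of cells plated in 1536-well plates.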

[2] = system: MIA-PaCa-2 (Pancreatic Carcinoma)
In short: as §1

[3] = system: VA-ES-BJ (Other Solid Carcinomas)
In short: as §1

[4] = system: Caov-4 (Ovarian Carcinoma)
In short: as §1

ACHN (Kidney Carcinoma) = system: ACHN (Kidney Carcinoma)
In short: as §1

NB69 (Neuroblastoma) = system: NB69 (Neuroblastoma)
In short: as §1

[5] = system: SW13 (Other Solid Carcinomas)
In short: as §1

[6] = system: NCI-H1915 (Non-Small Cell Lung Carcinoma)
In short: as §1

[7] = system: KYSE-450 (Esophageal Squamous Cell Carcinoma)
In short: as §1

[8] = system: NCI-H727 (Other Solid Carcinomas)
In short: as §1

[9] = system: TE-1 (Esophageal Squamous Cell Carcinoma)
In short: as §1

[10] = system: BT-549 (Breast Carcinoma)
In short: as §1

[11] = system: AMO-1 (Plasma Cell Myeloma)
In short: as §1

[12] = system: OSC-20 (Oral Cavity Carcinoma)
In short: as §1

[13] = system: C-4-I (Cervical Carcinoma)
In short: as §1

[14] = system: OE19 (Esophageal Adenocarcinoma)
In short: as §1

[15] = system: MLMA (Other Blood Carcinomas)
In short: as §1

[16] = system: LU-65 (Non-Small Cell Lung Carcinoma)
In short: as §1

[17] = system: RF-48 (B-Cell Non-Hodgkin's Lymphoma)
In short: as §1

[18] = system: KMOE-2 (Acute Myeloid Leukemia)
In short: as §1

Which results are given for `C=CCn1c(=O)c2cnc(Nc3ccc(N4CCN(C)CC4)cc3)nc2n1-c1cccc(C(C)(C)O)n1` [AZD1775] + C[C@@H]1COCCN1C2=NC(=NC(=C2)C3(CC3)[S@](=N)(=O)C)C4=C5C=CNC5=NC=C4 [AZD6738] (first compound max 1 µM, partner max 10 µM)?
combination Emax [1]: 0.966; combination Emax [2]: 0.956; combination Emax [3]: 0.822; combination Emax [4]: 0.902; combination Emax (ACHN (Kidney Carcinoma)): 0.964; combination Emax (NB69 (Neuroblastoma)): 0.971; combination Emax [5]: 0.636; combination Emax [6]: 0.658; combination Emax [7]: 0.946; combination Emax [8]: 0.654; combination Emax [9]: 0.654; combination Emax [10]: 0.808; combination Emax [11]: 0.922; combination Emax [12]: 0.401; combination Emax [13]: 0.93; combination Emax [14]: 0.918; combination Emax [15]: 0.935; combination Emax [16]: 0.884; combination Emax [17]: 0.669; combination Emax [18]: 0.92

`CC(=O)c1c(C)c2cnc(Nc3ccc(N4CCNCC4)cn3)nc2n(C2CCCC2)c1=O` [Palbociclib] + CC1(C)CCC(CN2CCN(c3ccc(C(=O)NS(=O)(=O)c4ccc(NCC5CCOCC5)c([N+](=O)[O-])c4)c(Oc4cnc5[nH]ccc5c4)c3)CC2)=C(c2ccc(Cl)cc2)C1 [Venetoclax] (first compound max 10 µM, 7x7, partner max 1 µM) was tested. Which “combination Emax” value [1] did it give?
The value was 0.628.

And the “combination Emax” value [2]?
Its value is 0.31.

And the “combination Emax” value [3]?
Its value is 0.257.

And the “combination Emax” value [4]?
Its value is 0.18.

What about the “combination Emax” value (ACHN (Kidney Carcinoma)) of the same compound?
Its value is 0.597.

And the “combination Emax” value (NB69 (Neuroblastoma))?
The value was 0.762.

What about the “combination Emax” value [5] of the same compound?
Its value is 0.24.

And the “combination Emax” value [6]?
Its value is 0.466.

What about the “combination Emax” value [7] of the same compound?
The value was 0.126.

What about the “combination Emax” value [8] of the same compound?
Its value is 0.232.

And the “combination Emax” value [9]?
The value was 0.179.

What about the “combination Emax” value [10] of the same compound?
The value was 0.308.

What about the “combination Emax” value [11] of the same compound?
Its value is 0.273.

And the “combination Emax” value [12]?
The value was 0.0423.

And the “combination Emax” value [13]?
Its value is 0.0751.

What about the “combination Emax” value [14] of the same compound?
Its value is 0.257.

And the “combination Emax” value [15]?
Its value is 0.683.

What about the “combination Emax” value [16] of the same compound?
The value was 0.117.

And the “combination Emax” value [17]?
Its value is 0.254.

What about the “combination Emax” value [18] of the same compound?
Its value is 0.215.

With `C=CCn1c(=O)c2cnc(Nc3ccc(N4CCN(C)CC4)cc3)nc2n1-c1cccc(C(C)(C)O)n1` [AZD1775] + O=C(c1cc(Cc2n[nH]c(=O)c3ccccc23)ccc1F)N1CCN(C(=O)C2CC2)CC1 [Olaparib] (first compound max 1 µM, partner max 10 µM) as the compound, how does the “combination Emax” value [1] read?
The value was 0.799.

What about the “combination Emax” value [2] of the same compound?
Its value is 0.737.

And the “combination Emax” value [3]?
Its value is 0.307.

What about the “combination Emax” value [4] of the same compound?
The value was 0.779.

What about the “combination Emax” value (ACHN (Kidney Carcinoma)) of the same compound?
Its value is 0.907.

What about the “combination Emax” value (NB69 (Neuroblastoma)) of the same compound?
Its value is 0.893.

And the “combination Emax” value [5]?
The value was 0.259.

And the “combination Emax” value [6]?
The value was 0.668.

What about the “combination Emax” value [7] of the same compound?
The value was 0.687.

And the “combination Emax” value [8]?
Its value is 0.368.

And the “combination Emax” value [9]?
Its value is 0.552.

And the “combination Emax” value [10]?
The value was 0.551.

What about the “combination Emax” value [11] of the same compound?
Its value is 0.728.

And the “combination Emax” value [12]?
The value was 0.289.

And the “combination Emax” value [13]?
The value was 0.792.

What about the “combination Emax” value [14] of the same compound?
The value was 0.301.

What about the “combination Emax” value [15] of the same compound?
The value was 0.882.

What about the “combination Emax” value [16] of the same compound?
Its value is 0.609.

And the “combination Emax” value [17]?
The value was 0.651.

What about the “combination Emax” value [18] of the same compound?
Its value is 0.905.

For `CC1(C)CCC(CN2CCN(c3ccc(C(=O)NS(=O)(=O)c4ccc(NCC5CCOCC5)c([N+](=O)[O-])c4)c(Oc4cnc5[nH]ccc5c4)c3)CC2)=C(c2ccc(Cl)cc2)C1` [Venetoclax] + Cn1cnc2c(F)c(Nc3ccc(Br)cc3Cl)c(C(=O)NOCCO)cc21 [Selumetinib] (first compound max 1 µM, 7x7, partner max 3 µM), which “combination Emax” value [1] is on record?
Its value is 0.142.

What about the “combination Emax” value [2] of the same compound?
Its value is 0.403.

And the “combination Emax” value [3]?
The value was 0.123.

And the “combination Emax” value [4]?
Its value is 0.364.

What about the “combination Emax” value (ACHN (Kidney Carcinoma)) of the same compound?
Its value is 0.688.

What about the “combination Emax” value (NB69 (Neuroblastoma)) of the same compound?
Its value is 0.919.

And the “combination Emax” value [5]?
The value was 0.317.

And the “combination Emax” value [6]?
Its value is 0.423.

And the “combination Emax” value [7]?
The value was 0.109.

And the “combination Emax” value [8]?
The value was 0.601.

What about the “combination Emax” value [9] of the same compound?
The value was 0.245.

What about the “combination Emax” value [10] of the same compound?
Its value is 0.106.

And the “combination Emax” value [11]?
Its value is 0.806.

And the “combination Emax” value [12]?
Its value is 0.172.

What about the “combination Emax” value [13] of the same compound?
Its value is 0.385.

What about the “combination Emax” value [14] of the same compound?
The value was 0.182.

And the “combination Emax” value [15]?
Its value is 0.93.

And the “combination Emax” value [16]?
The value was 0.538.

And the “combination Emax” value [17]?
Its value is 0.286.

And the “combination Emax” value [18]?
The value was 0.992.

For `COc1nnc2ccc(N3CCC(c4ccc(OCCN5CCN(C)C(=O)[C@H]5C)cc4)CC3)nn12` [AZD5153] + C[C@@H]1COCCN1C2=NC(=NC(=C2)C3(CC3)[S@](=N)(=O)C)C4=C5C=CNC5=NC=C4 [AZD6738] (first compound max 1 µM, 7x7, partner max 10 µM), which “combination Emax” value [1] is on record?
Its value is 0.859.

And the “combination Emax” value [2]?
Its value is 0.919.

What about the “combination Emax” value [3] of the same compound?
The value was 0.799.

What about the “combination Emax” value [4] of the same compound?
Its value is 0.894.

And the “combination Emax” value (ACHN (Kidney Carcinoma))?
The value was 0.928.

What about the “combination Emax” value (NB69 (Neuroblastoma)) of the same compound?
Its value is 0.991.

What about the “combination Emax” value [5] of the same compound?
The value was 0.718.

What about the “combination Emax” value [6] of the same compound?
The value was 0.546.

What about the “combination Emax” value [7] of the same compound?
The value was 0.481.

And the “combination Emax” value [8]?
Its value is 0.59.

And the “combination Emax” value [9]?
Its value is 0.617.

And the “combination Emax” value [10]?
The value was 0.637.

And the “combination Emax” value [11]?
The value was 0.978.

And the “combination Emax” value [12]?
Its value is 0.309.

What about the “combination Emax” value [13] of the same compound?
Its value is 0.876.

What about the “combination Emax” value [14] of the same compound?
Its value is 0.616.

What about the “combination Emax” value [15] of the same compound?
Its value is 0.967.

What about the “combination Emax” value [16] of the same compound?
Its value is 0.734.

And the “combination Emax” value [17]?
Its value is 0.629.

What about the “combination Emax” value [18] of the same compound?
Its value is 0.988.

Which “combination Emax” value [1] does the source give for `CC1(C)CCC(CN2CCN(c3ccc(C(=O)NS(=O)(=O)c4ccc(NCC5CCOCC5)c([N+](=O)[O-])c4)c(Oc4cnc5[nH]ccc5c4)c3)CC2)=C(c2ccc(Cl)cc2)C1` [Venetoclax] + C=CCn1c(=O)c2cnc(Nc3ccc(N4CCN(C)CC4)cc3)nc2n1-c1cccc(C(C)(C)O)n1 [AZD1775] (first compound max 1 µM, partner max 1 µM) here?
The value was 0.54.

What about the “combination Emax” value [2] of the same compound?
Its value is 0.795.

And the “combination Emax” value [3]?
The value was 0.503.

And the “combination Emax” value [4]?
Its value is 0.811.

What about the “combination Emax” value (ACHN (Kidney Carcinoma)) of the same compound?
Its value is 0.96.

What about the “combination Emax” value (NB69 (Neuroblastoma)) of the same compound?
Its value is 0.849.

What about the “combination Emax” value [5] of the same compound?
The value was 0.289.

And the “combination Emax” value [6]?
The value was 0.634.

And the “combination Emax” value [7]?
Its value is 0.614.

What about the “combination Emax” value [8] of the same compound?
The value was 0.689.

And the “combination Emax” value [9]?
The value was 0.603.

What about the “combination Emax” value [10] of the same compound?
The value was 0.778.

What about the “combination Emax” value [11] of the same compound?
Its value is 0.921.

And the “combination Emax” value [12]?
Its value is 0.253.

What about the “combination Emax” value [13] of the same compound?
The value was 0.872.

And the “combination Emax” value [14]?
The value was 0.223.

What about the “combination Emax” value [15] of the same compound?
Its value is 0.945.

What about the “combination Emax” value [16] of the same compound?
Its value is 0.733.

What about the “combination Emax” value [17] of the same compound?
Its value is 0.667.

And the “combination Emax” value [18]?
The value was 0.966.
